Reference: ChEMBL document CHEMBL3603744, “Structure activity relationship of C-2 ether substituted 1,5-naphthyridine analogs of oxabicyclooctane-linked novel bacterial topoisomerase inhibitors as broad-spectrum antibacterial agents (Part-5)” (Bioorg Med Chem Lett, 2015)
In brackets after ≈: the same amount, converted by molar mass. Activity calls are given as the source filed them. The rule behind the calls is not given here.

Legend:
[1] = tested on: Staphylococcus aureus; assay: Antimicrobial activity against Staphylococcus aureus Smith by micro broth dilution or agar based method; type: functional
[2] = tested on: Streptococcus pneumoniae; assay: Antimicrobial activity against Streptococcus pneumoniae IID553 by micro broth dilution or agar based method; type: functional
[3] = tested on: Enterococcus faecium; assay: Antimicrobial activity against vancomycin-resistant Enterococcus faecium VanA by micro broth dilution or agar based method; type: functional
[4] = tested on: Escherichia coli; assay: Antimicrobial activity against Escherichia coli ATCC 25922 by micro broth dilution or agar based method; type: functional
[5] = tested on: Acinetobacter baumannii; assay: Antimicrobial activity against Acinetobacter baumannii IID876 by micro broth dilution or agar based method; type: functional
[6] = tested on: Pseudomonas aeruginosa; assay: Antimicrobial activity against Pseudomonas aeruginosa PAO1 by micro broth dilution or agar based method; type: functional
[7] = tested on: Staphylococcus aureus; assay: Antimicrobial activity against methicillin-resistant Staphylococcus aureus OIT971 by micro broth dilution or agar based method; type: functional, organism-based
[8] = tested on: Staphylococcus aureus; assay: Resistance index, ratio of MIC for quinolone-resistant Staphylococcus aureus MS5935 to MIC for quinolone-[…]; type: functional

SMILES | MIC [1] | MIC [2] | MIC [3] | MIC [4] | MIC [5] | MIC [6] | growth inhibition (GI) [7] | Ratio [8]
CC(C)CCOc1ccc2ncc(F)c(CCC34CCC(NCc5ccc6c(n5)NC(=O)CO6)(CC3)CO4)c2n1 | 0.125 µg/mL (≈ 0.227 µM) | 1 µg/mL (≈ 1.82 µM) | 8 µg/mL (≈ 14.6 µM) | 16 µg/mL (≈ 29.1 µM) | 16 µg/mL (≈ 29.1 µM) | 16 µg/mL (≈ 29.1 µM) | Active | –
O=C1COc2ccc(CNC34CCC(CCc5c(F)cnc6ccc(OC[C@@H]7C[C@@H](O)[C@@H](O)C7)nc56)(CC3)OC4)nc2N1 | 0.125 µg/mL (≈ 0.211 µM) | 0.5 µg/mL (≈ 0.842 µM) | 4 µg/mL (≈ 6.74 µM) | 16 µg/mL (≈ 27 µM) | 8 µg/mL (≈ 13.5 µM) | 32 µg/mL (≈ 53.9 µM) | Active | –
COC(=O)C1(COc2ccc3ncc(F)c(CCC45CCC(NCc6ccc7c(n6)NC(=O)CO7)(CC4)CO5)c3n2)CC1 | 0.125 µg/mL (≈ 0.211 µM) | 2 µg/mL (≈ 3.38 µM) | 16 µg/mL (≈ 27 µM) | 16 µg/mL (≈ 27 µM) | 8 µg/mL (≈ 13.5 µM) | 16 µg/mL (≈ 27 µM) | Active | –
N[C@@H]1C(=O)NC[C@H]1Oc1ccc2ncc(F)c(CCC34CCC(NCc5ccc6c(n5)NC(=O)CO6)(CC3)CO4)c2n1 | 16 µg/mL (≈ 27.7 µM) | 16 µg/mL (≈ 27.7 µM) | 16 µg/mL (≈ 27.7 µM) | 16 µg/mL (≈ 27.7 µM) | 16 µg/mL (≈ 27.7 µM) | 16 µg/mL (≈ 27.7 µM) | Active | –
O=C1COc2ccc(CNC34CCC(CCc5c(F)cnc6ccc(OCCC(F)(F)C(=O)O)nc56)(CC3)OC4)nc2N1 | 16 µg/mL (≈ 26.6 µM) | 16 µg/mL (≈ 26.6 µM) | 16 µg/mL (≈ 26.6 µM) | 16 µg/mL (≈ 26.6 µM) | 16 µg/mL (≈ 26.6 µM) | 16 µg/mL (≈ 26.6 µM) | Active | –
N[C@@H]1CO[C@H]1COc1ccc2ncc(F)c(CCC34CCC(NCc5ccc6c(n5)NC(=O)CO6)(CC3)CO4)c2n1 | 0.25 µg/mL (≈ 0.443 µM) | 2 µg/mL (≈ 3.54 µM) | 8 µg/mL (≈ 14.2 µM) | 4 µg/mL (≈ 7.08 µM) | 1 µg/mL (≈ 1.77 µM) | 16 µg/mL (≈ 28.3 µM) | Active | –
N[C@H]1C(=O)N[C@@H]1COc1ccc2ncc(F)c(CCC34CCC(NCc5ccc6c(n5)NC(=O)CO6)(CC3)CO4)c2n1 | 0.5 µg/mL (≈ 0.866 µM) | 0.5 µg/mL (≈ 0.866 µM) | 16 µg/mL (≈ 27.7 µM) | 16 µg/mL (≈ 27.7 µM) | 32 µg/mL (≈ 55.4 µM) | 32 µg/mL (≈ 55.4 µM) | Active | –
O=C1COc2ccc(CNC34CCC(CCc5c(F)cnc6ccc(OCC7(CO)CC7)nc56)(CC3)OC4)nc2N1 | 0.063 µg/mL (≈ 0.112 µM) | 1 µg/mL (≈ 1.77 µM) | 4 µg/mL (≈ 7.1 µM) | 16 µg/mL (≈ 28.4 µM) | 4 µg/mL (≈ 7.1 µM) | 32 µg/mL (≈ 56.8 µM) | Active | –
CNC(=O)COc1ccc2ncc(F)c(CCC34CCC(NCc5ccc6c(n5)NC(=O)CO6)(CC3)CO4)c2n1 | 0.125 µg/mL (≈ 0.227 µM) | 0.5 µg/mL (≈ 0.908 µM) | 4 µg/mL (≈ 7.26 µM) | 16 µg/mL (≈ 29.1 µM) | 4 µg/mL (≈ 7.26 µM) | 16 µg/mL (≈ 29.1 µM) | Active | <4
NC1(COc2ccc3ncc(F)c(CCC45CCC(NCc6ccc7c(n6)NC(=O)CO7)(CC4)CO5)c3n2)CC1 | 0.25 µg/mL (≈ 0.456 µM) | 1 µg/mL (≈ 1.82 µM) | 8 µg/mL (≈ 14.6 µM) | 2 µg/mL (≈ 3.65 µM) | 1 µg/mL (≈ 1.82 µM) | 16 µg/mL (≈ 29.2 µM) | Active | –
CCOC(=O)C(F)(F)CCOc1ccc2ncc(F)c(CCC34CCC(NCc5ccc6c(n5)NC(=O)CO6)(CC3)CO4)c2n1 | 1 µg/mL (≈ 1.59 µM) | 8 µg/mL (≈ 12.7 µM) | 64 µg/mL (≈ 102 µM) | 64 µg/mL (≈ 102 µM) | 32 µg/mL (≈ 50.8 µM) | 64 µg/mL (≈ 102 µM) | Active | –
NCCOc1ccc2ncc(F)c(CCC34CCC(NCc5ccc6c(n5)NC(=O)CO6)(CC3)CO4)c2n1 | 0.25 µg/mL (≈ 0.478 µM) | 0.5 µg/mL (≈ 0.957 µM) | 4 µg/mL (≈ 7.65 µM) | 1 µg/mL (≈ 1.91 µM) | 1 µg/mL (≈ 1.91 µM) | 4 µg/mL (≈ 7.65 µM) | Active | –
CCOC(=O)CCCOc1ccc2ncc(F)c(CCC34CCC(NCc5ccc6c(n5)NC(=O)CO6)(CC3)CO4)c2n1 | 0.031 µg/mL (≈ 0.0522 µM) | 0.125 µg/mL (≈ 0.211 µM) | 2 µg/mL (≈ 3.37 µM) | 8 µg/mL (≈ 13.5 µM) | 2 µg/mL (≈ 3.37 µM) | 8 µg/mL (≈ 13.5 µM) | Active | –
O=C(O)CCCOc1ccc2ncc(F)c(CCC34CCC(NCc5ccc6c(n5)NC(=O)CO6)(CC3)CO4)c2n1 | 0.25 µg/mL (≈ 0.442 µM) | 0.5 µg/mL (≈ 0.884 µM) | 4 µg/mL (≈ 7.07 µM) | 16 µg/mL (≈ 28.3 µM) | 16 µg/mL (≈ 28.3 µM) | 16 µg/mL (≈ 28.3 µM) | Active | –
O=C1COc2ccc(CNC34CCC(CCc5c(F)cnc6ccc(OCC(F)(F)F)nc56)(CC3)OC4)nc2N1 | 0.063 µg/mL (≈ 0.112 µM) | 1 µg/mL (≈ 1.78 µM) | 4 µg/mL (≈ 7.12 µM) | 16 µg/mL (≈ 28.5 µM) | 8 µg/mL (≈ 14.2 µM) | 16 µg/mL (≈ 28.5 µM) | Active | –
O=C1COc2ccc(CNC34CCC(CCc5c(F)cnc6ccc(OCC(CO)CO)nc56)(CC3)OC4)nc2N1 | 0.125 µg/mL (≈ 0.22 µM) | 0.5 µg/mL (≈ 0.881 µM) | 4 µg/mL (≈ 7.05 µM) | 16 µg/mL (≈ 28.2 µM) | 8 µg/mL (≈ 14.1 µM) | 32 µg/mL (≈ 56.4 µM) | Active | –
O=C1COc2ccc(CNC34CCC(CCc5c(F)cnc6ccc(OC(F)F)nc56)(CC3)OC4)nc2N1 | 0.016 µg/mL (≈ 0.0302 µM) | 0.125 µg/mL (≈ 0.236 µM) | 1 µg/mL (≈ 1.89 µM) | 2 µg/mL (≈ 3.78 µM) | 0.5 µg/mL (≈ 0.944 µM) | 4 µg/mL (≈ 7.55 µM) | Active | –
CCOc1ccc2ncc(F)c(CCC34CCC(NCc5ccc6c(n5)NC(=O)CO6)(CC3)CO4)c2n1 | 0.031 µg/mL (≈ 0.0611 µM) | 0.5 µg/mL (≈ 0.985 µM) | 2 µg/mL (≈ 3.94 µM) | 4 µg/mL (≈ 7.88 µM) | 2 µg/mL (≈ 3.94 µM) | 8 µg/mL (≈ 15.8 µM) | Active | –
